Common to all, as to format: cell-based
For one assay, the system named is SK-BR-3. The assay can be described thus: Inhibition of proliferation of SK-BR-3 cells by compounds (CellTiter-Glo, 72 h). As to conditions: SK-BR-3, 72 h incubation. As for the experimental part:
3: Test method (1) Cell plating: first, tumor cells SK-BR-3 were cultured using a corresponding culture medium, trypsinized, centrifuged, resuspended for counting, adjusted to an appropriate concentration, and then plated on a 384-well plate. (2) Co-incubation of the compounds and tumor cells: after the cells adhered to the wall, 100 nL of a diluted bioactive substance (test compound) was added to the cell culture plate using ECHO, the final concentration of DMSO in wells of the cell plate was 0.33%, and the incubation was performed in an incubator at 37°C with 5% CO2 for 72 h. (3) After the incubation was complete, 30 µL of a CTG reagent (CelltiterGlo kit) was added to each well. The culture was oscillated on a fast oscillator for 2 min, centrifuged at 1,000 rpm for 1 min, and kept away from light at room temperature for 30 min. The chemiluminescence signal value was read using an Envision instrument. (4) Cell viability detection: IC50 was calculated using GraphPad Prism 8 software, and the IC50 of the compounds was obtained using the following nonlinear fitting formula (see Table 1) : 1. Y=Bottom+(Top-Bottom)/(1+10^((LogIC50-X)*HillSlope)) 2. […] Table 1 Antiproliferative activity of test compounds on SK-BR-3

For a further assay, the system named is MDA-MB-468. The assay can be described thus: Inhibition of proliferation of MDA-MB-468 cells by test compounds (CellTiter-Glo, 72 h). As to conditions: MDA-MB-468, 72 h incubation. How it is done:
3: Test method • (1) Cell plating: first, tumor cells MDA-MB-468 were cultured using a corresponding culture medium, trypsinized, centrifuged, resuspended for counting, adjusted to an appropriate concentration, and then plated on a 384-well plate. • (2) Co-incubation of the compounds and tumor cells: after the cells adhered to the wall, 100 nL of a diluted bioactive substance (test compound) was added to the cell culture plate using ECHO, the final concentration of DMSO in wells of the cell plate was 0.33%, and the incubation was performed in an incubator at 37°C with […] for 72 h. • (3) After the incubation was complete, 30 µL of a CTG reagent (CelltiterGlo kit) was added to each well. The culture was oscillated on a fast oscillator for 2 min, centrifuged at 1,000 rpm for 1 min, and kept away from light at room temperature for 30 min. The chemiluminescence signal value was read using an Envision instrument. • (4) Cell viability detection: IC50 was calculated using GraphPad Prism 8 software, and the IC50 of the compounds was obtained using the following nonlinear fitting formula (see Table 2): • 6. Y=Bottom+(Top-Bottom)/(1+10^((LogIC50-X)*HillSlope)) • 7. […] Table 2 Antiproliferative activity of test compounds on MDA-MB-468

A further assay concerns NCI-N87. Kind of assay: Inhibition of proliferation of NCI-N87 cells by test compounds (CellTiter-Glo, 72 h). The note with it: NCI-N87, 72 h incubation. How it is done:
3: Test method (1) Cell plating: first, tumor cells NCI-N87 were cultured using a corresponding culture medium, trypsinized, centrifuged, resuspended for counting, adjusted to an appropriate concentration, and then plated on a 384-well plate. (2) Co-incubation of the compounds and tumor cells: after the cells adhered to the wall, 100 nL of a diluted bioactive substance (test compound) was added to the cell culture plate using ECHO, the final concentration of DMSO in wells of the cell plate was 0.33%, and the incubation was performed in an incubator at 37°C with […] for 72 h. (3) After the incubation was complete, 30 µL of a CTG reagent (CelltiterGlo kit) was added to each well. The culture was oscillated on a fast oscillator for 2 min, centrifuged at 1,000 rpm for 1 min, and kept away from light at room temperature for 30 min. The chemiluminescence signal value was read using an Envision instrument. (4) Cell viability detection: IC50 was calculated using GraphPad Prism 8 software, and the IC50 of the compounds was obtained using the following nonlinear fitting formula (see Table 3) : 11. Y=Bottom+(Top-Bottom)/(1+10^((LogIC50-X)*HillSlope)) 12. […] Table 3 Antiproliferative activity of test compounds on cells NCI-N87
Background: In ATP-based viability assays light output follows the ATP content of the culture.

Usually IC50 stands for the concentration that inhibits the measured activity by half. Read a low IC50 as greater potency. For the compound `CC[C@@]1(O)C(=O)OCc2c1cc1n(c2=O)Cc2c-1nc1cc(F)c(C3CC3)c3c1c2C(NC(=O)C[C@@H](C)O)CC3` (single isomer, unassigned) [17-1], the IC50 in the assay with SK-BR-3 (Homo sapiens, SK-BR-3, 72 h) turned out to be 4.6 nM; with MDA-MB-468 (Homo sapiens, MDA-MB-468, 72 h), 5.8 nM; in the assay on NCI-N87 (Homo sapiens, NCI-N87, 72 h), 3.6 nM.
On the same counts, the results for `CC[C@@]1(O)C(=O)OCc2c1cc1n(c2=O)Cc2c-1nc1cc(F)c(C3CC3)c3c1c2C(NC(=O)[C@H]1C[C@@H](O)C1)CC3` (single isomer, unassigned) [18-2] are 9.6 nM, 12 nM and 16.5 nM.
In the case of `CC[C@@]1(O)C(=O)OCc2c1cc1n(c2=O)Cc2c-1nc1cc(F)c(C3CC3)c3c1c2C(NC(=O)C[C@@H](C)O)CCC3` (single isomer, unassigned) [19-1], the IC50 with SK-BR-3 (Homo sapiens, SK-BR-3, 72 h) was determined as 8.3 nM; with MDA-MB-468 (Homo sapiens, MDA-MB-468, 72 h) it was 7.1 nM; in the assay with NCI-N87 (Homo sapiens, NCI-N87, 72 h) it was 7.4 nM.
Take `CC[C@@]1(O)C(=O)OCc2c1cc1n(c2=O)Cc2c-1nc1cc(F)c(C3CC3)c3c1c2C(NC(=O)C[C@@H](C)O)CCC3` (single isomer, unassigned) [19-2]: the values for the IC50 in the assay on SK-BR-3, in the assay on MDA-MB-468 and with NCI-N87 were 7.6 nM, 6.9 nM and 7.4 nM, respectively.
Take `CC[C@@]1(O)C(=O)OCc2c1cc1n(c2=O)Cc2c-1nc1cc(F)c(C3CC3)c3c1c2C(NC(=O)[C@H]1C[C@@H](O)C1)CCC3` (single isomer, unassigned) [20-1]: the 50% inhibitory concentration (IC50) in the assay on SK-BR-3 (Homo sapiens, SK-BR-3, 72 h) was 21 nM; in the assay on MDA-MB-468 (Homo sapiens, MDA-MB-468, 72 h), 15.6 nM; in the assay with NCI-N87 (Homo sapiens, NCI-N87, 72 h) it was 26 nM.
Take `CC[C@@]1(O)C(=O)OCc2c1cc1n(c2=O)Cc2c-1nc1cc(F)c(C3CC3)c3c1c2C(NC(=O)[C@H]1C[C@@H](O)C1)CCC3` (single isomer, unassigned) [20-2]: the IC50 came out at 25 nM in the assay on SK-BR-3, 19.5 nM with MDA-MB-468 and 28 nM in the assay on NCI-N87.
The like results for `CC[C@@]1(O)C(=O)OCc2c1cc1n(c2=O)Cc2c-1nc1cc(F)c(C)c3c1c2C(NC(=O)[C@H]1C[C@@H](O)C1)CCO3` (single isomer, unassigned) [25-1] were, in that order, 80 nM, 69 nM and 110 nM.
The like results for `CC[C@@]1(O)C(=O)OCc2c1cc1n(c2=O)Cc2c-1nc1cc(F)c(C)c3c1c2C(NC(=O)[C@H]1C[C@@H](O)C1)CCO3` (single isomer, unassigned) [25-2] were, in that order, 19 nM, 18 nM and 40 nM.
On the same counts, the results for `CC[C@@]1(O)C(=O)OCc2c1cc1n(c2=O)Cc2c-1nc1cc(F)c(Br)c3c1c2C(NC(=O)C[C@@H](C)O)CC3` (stereo partly drawn) [3-1, (R)-N-((1S,9S)-4-bromo-9-ethyl-5-fluoro-9-hydroxy-10,13-dioxo-2,3,9,10,13,15-hexahydro-1H,12H-benzo[de]pyrano[3',4',6,7]indolizino[1,2-b]quinolin-1-yl)-3-hydroxybutanamide] are 13 nM, 7.5 nM and 16 nM.
On to `CC[C@@]1(O)C(=O)OCc2c1cc1n(c2=O)Cc2c-1nc1cc(F)c(Br)c3c1c2C(NC(=O)C[C@@H](C)O)CC3` (stereo partly drawn) [3-2, (R)-N-((1R,9S)-4-bromo-9-ethyl-5-fluoro-9-hydroxy-10,13-dioxo-2,3,9,10,13,15-hexahydro-1H,12H-benzo[de]pyrano[3',4',6,7]indolizino[1,2-b]quinolin-1-yl)-3-hydroxybutanamide], for which the values for the IC50 with SK-BR-3, in the assay on MDA-MB-468 and with NCI-N87 were 15 nM, 12 nM and 16 nM, respectively.
As to `CC[C@@]1(O)C(=O)OCc2c1cc1n(c2=O)Cc2c-1nc1cc(F)cc3c1c2C(NC(=O)C[C@@H](C)O)CC3` (stereo partly drawn) [4-1, (R)-N-((1S,9S)-9-ethyl-5-fluoro-9-hydroxy-10,13-dioxo-2,3,9,10,13,15-hexahydro-1H,12H-benzo[de]pyrano[3',4',6,7]indolizino[1,2-b]quinolin-1-yl)-3-hydroxybutanamide], the results for the IC50 in the assay on SK-BR-3 and in the assay on MDA-MB-468 were 61 nM and 34 nM, respectively.
On to `CC[C@@]1(O)C(=O)OCc2c1cc1n(c2=O)Cc2c-1nc1cc(F)cc3c1c2C(NC(=O)C[C@@H](C)O)CC3` (stereo partly drawn) [4-2, (R)-N-((1R,9S)-9-ethyl-5-fluoro-9-hydroxy-10,13-dioxo-2,3,9,10,13,15-hexahydro-1H,12H-benzo[de]pyrano[3',4',6,7]indolizino[1,2-b]quinolin-1-yl)-3-hydroxybutanamide], for which the values for the IC50 in the assay with SK-BR-3, with MDA-MB-468 and in the assay on NCI-N87 were 14 nM, 13 nM and 22 nM, respectively.
The like results for `CC[C@@]1(O)C(=O)OCc2c1cc1n(c2=O)Cc2c-1nc1cc(F)c(OC(F)F)c3c1c2C(NC(=O)C[C@@H](C)O)CC3` (stereo partly drawn) [5-1, (R)-N-((1S,9S)-4-(difluoromethoxy)-9-ethyl-5-fluoro-9-hydroxy-10,13-dioxo-2,3,9,10,13,15-hexahydro-1H,12H-benzo[de]pyrano[3',4',6,7]indolizino[1,2-b]quinolin-1-yl)-3-hydroxybutanamide] were, in that order, 20 nM, 6.7 nM and 14 nM.
Take `CC[C@@]1(O)C(=O)OCc2c1cc1n(c2=O)Cc2c-1nc1cc(F)c(OC(F)F)c3c1c2C(NC(=O)C[C@@H](C)O)CC3` (stereo partly drawn) [5-2, (R)-N-((1R,9S)-4-(difluoromethoxy)-9-ethyl-5-fluoro-9-hydroxy-10,13-dioxo-2,3,9,10,13,15-hexahydro-1H,12H-benzo[de]pyrano[3',4',6,7]indolizino[1,2-b]quinolin-1-yl)-3-hydroxybutanamide]: the IC50 amounted to 20 nM with SK-BR-3, 9.4 nM in the assay on MDA-MB-468 and 18 nM with NCI-N87.
Take `C=Cc1c(F)cc2nc3c(c4c2c1CCC4NC(=O)C[C@@H](C)O)Cn1c-3cc2c(c1=O)COC(=O)[C@]2(O)CC` (stereo partly drawn) [7-1, (R)-N-((1S,9S)-9-ethyl-5-fluoro-9-hydroxy-10,13-dioxo-4-vinyl-2,3,9,10,13,15-hexahydro-1H,12H-benzo[de]pyrano[3',4',6,7]indolizino[1,2-b]quinolin-1-yl)-3-hydroxybutanamide]: the IC50 is 8.6 nM in the assay with SK-BR-3 and 3.1 nM with MDA-MB-468.
On the same counts, the results for `CC[C@@]1(O)C(=O)OCc2c1cc1n(c2=O)Cc2c-1nc1cc(F)c(OCC(F)(F)F)c3c1c2C(NC(=O)C[C@@H](C)O)CC3` (stereo partly drawn) [8-2, (R)-N-((1R,9S)-9-ethyl-5-fluoro-9-hydroxy-10,13-dioxo-4-(2,2,2-trifluoroethoxy)-2,3,9,10,13,15-hexahydro-1H,12H-benzo[de]pyrano[3',4',6,7]indolizino[1,2-b]quinolin-1-yl)-3-hydroxybutanamide] are 87 nM and 38 nM.
`CC[C@@]1(O)C(=O)OCc2c1cc1n(c2=O)Cc2c-1nc1cc(F)c(C3CC3)c3c1c2C(NC(=O)[C@H]1C[C@@H](O)C1)CC3` (stereo partly drawn) [18-1, (1S,3S)-N-((1R,9S)-4-cyclopropyl-9-ethyl-5-fluoro-9-hydroxy-10,13-dioxo-2,3,9,10,13,15-hexahydro-1H,12H-benzo[d]pyrano[3',4':6,7]indolizino[1,2-b]quinolin-1-yl)-3-hydroxycyclobutane-1-carboxamide]: the IC50 in the assay on MDA-MB-468 was 12 nM.
With `CC[C@@]1(O)C(=O)OCc2c1cc1n(c2=O)Cc2c-1nc1ccc(O)c3c1c2CCC3` [compound 9, (S)-9-ethyl-4,9-dihydroxy-1,2,3,9,12,15-hexahydro-10H,13H-benzopyrano[3',4',6,7]indolizino[1,2-b]quinoline-10,13-dione], 3 nM corresponded to half-maximal inhibition with NCI-N87 (Homo sapiens, NCI-N87, 72 h) (IC50).
For the compound “(R)-3-cyclopropyl-N-((1S,9S)-4-cyclopropyl-9-ethyl-5-fluoro-9-hydroxy-10,13-dioxo-2,3,9,10,13,15-hexahydro-1H,12H-benzo[d]pyrano[3',4':6,7]indolizino[1,2-b]quinolin-1-yl)-3-hydroxypropanamide [34-2]”, the IC50 came out at 4 nM in the assay with MDA-MB-468 and 6 nM in the assay on NCI-N87.

The record behind these values is patent EP4692091A1, “CA[…], AND PHARMACEUTICAL COMPOSITION, PREPARATION METHOD THEREFOR AND USE THEREOF” (Changchun Genescience Pharmaceutical Co., Ltd., priority 2023, dated 2024).
